Data on 2 molecules can be found in ChEMBL document CHEMBL5653615 (J Biol Chem, 2013).

Experiment [1] concerns the target T1, MAP/microtubule affinity-regulating kinase 4 (Homo sapiens) (UniProt Q96L34).
T1 sequence (whole entry): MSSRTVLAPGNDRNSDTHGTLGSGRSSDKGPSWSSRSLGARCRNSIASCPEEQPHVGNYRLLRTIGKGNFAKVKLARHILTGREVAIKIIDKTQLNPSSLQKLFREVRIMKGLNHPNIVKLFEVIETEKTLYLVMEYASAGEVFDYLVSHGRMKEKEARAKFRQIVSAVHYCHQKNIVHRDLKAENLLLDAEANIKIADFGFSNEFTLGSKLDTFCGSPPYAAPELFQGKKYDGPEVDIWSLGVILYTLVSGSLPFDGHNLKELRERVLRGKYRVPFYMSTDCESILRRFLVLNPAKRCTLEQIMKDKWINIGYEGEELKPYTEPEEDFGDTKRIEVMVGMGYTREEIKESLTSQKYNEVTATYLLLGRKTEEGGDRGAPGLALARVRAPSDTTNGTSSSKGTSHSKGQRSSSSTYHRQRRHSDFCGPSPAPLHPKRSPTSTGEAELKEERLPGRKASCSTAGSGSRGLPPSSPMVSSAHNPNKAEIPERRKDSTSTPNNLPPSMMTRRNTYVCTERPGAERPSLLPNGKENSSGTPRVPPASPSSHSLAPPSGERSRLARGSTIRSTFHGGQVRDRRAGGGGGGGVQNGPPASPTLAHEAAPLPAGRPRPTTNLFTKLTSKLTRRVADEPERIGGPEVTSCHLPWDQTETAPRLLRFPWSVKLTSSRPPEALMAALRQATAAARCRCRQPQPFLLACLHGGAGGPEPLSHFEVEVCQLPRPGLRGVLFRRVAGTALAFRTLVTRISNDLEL
As to the kind of experiment: Inhibition of human MARK4 at 18.6 nM by HotSpot assay relative to control.

For experiment [2], the target named is T2, Serine/threonine-protein kinase TBK1 (Homo sapiens) (UniProt Q9UHD2).
T2 sequence (whole entry): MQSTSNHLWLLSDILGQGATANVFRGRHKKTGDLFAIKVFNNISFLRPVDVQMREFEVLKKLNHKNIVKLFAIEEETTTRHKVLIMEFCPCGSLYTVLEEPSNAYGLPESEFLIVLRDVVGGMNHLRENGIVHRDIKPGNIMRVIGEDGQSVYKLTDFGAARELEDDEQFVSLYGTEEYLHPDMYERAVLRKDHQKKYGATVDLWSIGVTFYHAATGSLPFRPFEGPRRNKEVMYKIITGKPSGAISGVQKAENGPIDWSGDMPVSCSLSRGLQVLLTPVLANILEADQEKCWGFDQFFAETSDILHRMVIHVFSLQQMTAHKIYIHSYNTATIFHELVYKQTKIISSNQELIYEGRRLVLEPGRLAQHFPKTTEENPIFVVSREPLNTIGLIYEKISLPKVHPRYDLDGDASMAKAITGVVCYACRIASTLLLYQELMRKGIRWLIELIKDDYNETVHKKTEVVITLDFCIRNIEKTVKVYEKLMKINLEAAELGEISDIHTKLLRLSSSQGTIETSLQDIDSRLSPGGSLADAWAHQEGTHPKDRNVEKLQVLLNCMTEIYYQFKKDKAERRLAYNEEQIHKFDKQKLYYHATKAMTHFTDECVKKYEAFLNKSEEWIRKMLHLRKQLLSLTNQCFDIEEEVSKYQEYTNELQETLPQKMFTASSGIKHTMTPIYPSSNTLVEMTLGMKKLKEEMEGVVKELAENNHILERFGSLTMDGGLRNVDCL
Briefly: Inhibition of human TBK1 at 18.6 nM by HotSpot assay relative to control.

Experiment [3] deals with Mitogen-activated protein kinase 8 (Homo sapiens) (UniProt P45983). As to the kind of experiment: Inhibition of human JNK1 at 18.6 nM by HotSpot assay relative to control.
For experiment [4], the target named is Serine/threonine-protein kinase Nek4 (Homo sapiens) (UniProt P51957). Briefly: Inhibition of human NEK4 at 18.6 nM by HotSpot assay relative to control.
Experiment [5] has as its target CDK6/cyclin D3 (Homo sapiens) (UniProt P30281+Q00534). As to the kind of experiment: Inhibition of human CDK6/cyclin D3 at 18.6 nM by HotSpot assay relative to control. It is filed as protein-complex assay.
Experiment [6] addresses T3, Activin receptor type-1B (Homo sapiens) (UniProt P36896).
T3 sequence (whole entry): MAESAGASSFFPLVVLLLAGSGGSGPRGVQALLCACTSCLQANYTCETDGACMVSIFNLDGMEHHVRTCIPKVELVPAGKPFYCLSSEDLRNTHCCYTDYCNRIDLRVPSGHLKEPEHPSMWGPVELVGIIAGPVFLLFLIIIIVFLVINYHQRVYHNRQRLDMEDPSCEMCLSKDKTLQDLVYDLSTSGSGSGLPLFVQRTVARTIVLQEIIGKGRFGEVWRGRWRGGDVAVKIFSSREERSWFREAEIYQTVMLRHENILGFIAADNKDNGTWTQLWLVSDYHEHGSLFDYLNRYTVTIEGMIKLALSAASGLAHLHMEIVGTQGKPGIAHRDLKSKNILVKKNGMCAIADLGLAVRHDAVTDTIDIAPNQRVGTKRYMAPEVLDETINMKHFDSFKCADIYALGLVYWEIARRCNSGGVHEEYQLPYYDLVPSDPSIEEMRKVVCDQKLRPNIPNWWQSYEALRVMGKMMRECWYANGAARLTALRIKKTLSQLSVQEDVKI
As to the kind of experiment: Inhibition of human ALK4 at 1.82 nM by HotSpot assay relative to control.

Experiment [7] concerns the target T1, MAP/microtubule affinity-regulating kinase 4 (Homo sapiens). As to the kind of experiment: Inhibition of human MARK4 at 1.82 nM by HotSpot assay relative to control.
In experiment [8] the target is Vascular endothelial growth factor receptor 2 (Homo sapiens) (UniProt P35968). Briefly: Inhibition of human KDR at 1.82 nM by HotSpot assay relative to control.
Experiment [9] addresses Serine/threonine-protein kinase PAK 3 (Homo sapiens) (UniProt O75914). As to the kind of experiment: Inhibition of human PAK3 at 1.82 nM by HotSpot assay relative to control.
In experiment [10] the target is Mitogen-activated protein kinase kinase kinase 20 (Homo sapiens) (UniProt Q9NYL2). As to the kind of experiment: Inhibition of human MLTK at 1.82 nM by HotSpot assay relative to control.
The target in experiment [11] is Mitogen-activated protein kinase 3 (Homo sapiens) (UniProt P27361). Briefly: Inhibition of human ERK1 at 1.82 nM by HotSpot assay relative to control.
Chain of Mitogen-activated protein kinase 3 (Homo sapiens) (P27361 whole entry): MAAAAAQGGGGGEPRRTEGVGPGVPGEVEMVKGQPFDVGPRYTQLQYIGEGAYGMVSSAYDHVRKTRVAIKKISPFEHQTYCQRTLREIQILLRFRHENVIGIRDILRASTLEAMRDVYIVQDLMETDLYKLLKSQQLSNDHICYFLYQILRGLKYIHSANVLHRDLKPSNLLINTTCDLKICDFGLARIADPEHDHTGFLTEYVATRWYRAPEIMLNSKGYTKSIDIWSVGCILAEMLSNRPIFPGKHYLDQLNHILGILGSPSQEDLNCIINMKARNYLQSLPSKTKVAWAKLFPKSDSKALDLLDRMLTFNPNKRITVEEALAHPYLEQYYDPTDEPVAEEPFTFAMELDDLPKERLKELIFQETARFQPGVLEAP

Chain of Serine/threonine-protein kinase PAK 3 (Homo sapiens) (O75914 whole entry, looked up): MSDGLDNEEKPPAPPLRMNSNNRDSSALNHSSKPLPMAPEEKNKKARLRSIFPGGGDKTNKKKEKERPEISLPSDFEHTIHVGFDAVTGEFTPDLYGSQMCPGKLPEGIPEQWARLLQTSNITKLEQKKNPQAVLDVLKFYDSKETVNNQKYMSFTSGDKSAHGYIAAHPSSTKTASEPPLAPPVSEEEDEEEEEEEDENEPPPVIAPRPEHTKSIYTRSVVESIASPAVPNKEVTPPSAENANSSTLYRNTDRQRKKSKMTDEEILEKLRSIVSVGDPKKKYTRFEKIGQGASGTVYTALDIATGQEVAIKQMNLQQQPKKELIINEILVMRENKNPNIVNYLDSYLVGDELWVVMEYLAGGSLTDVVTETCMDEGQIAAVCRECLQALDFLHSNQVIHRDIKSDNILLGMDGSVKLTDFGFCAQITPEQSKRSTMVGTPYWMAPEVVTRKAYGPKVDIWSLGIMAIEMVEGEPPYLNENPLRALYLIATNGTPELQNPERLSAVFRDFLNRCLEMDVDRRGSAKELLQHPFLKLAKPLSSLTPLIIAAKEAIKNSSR
Chain of Mitogen-activated protein kinase 8 (Homo sapiens) (P45983 whole entry): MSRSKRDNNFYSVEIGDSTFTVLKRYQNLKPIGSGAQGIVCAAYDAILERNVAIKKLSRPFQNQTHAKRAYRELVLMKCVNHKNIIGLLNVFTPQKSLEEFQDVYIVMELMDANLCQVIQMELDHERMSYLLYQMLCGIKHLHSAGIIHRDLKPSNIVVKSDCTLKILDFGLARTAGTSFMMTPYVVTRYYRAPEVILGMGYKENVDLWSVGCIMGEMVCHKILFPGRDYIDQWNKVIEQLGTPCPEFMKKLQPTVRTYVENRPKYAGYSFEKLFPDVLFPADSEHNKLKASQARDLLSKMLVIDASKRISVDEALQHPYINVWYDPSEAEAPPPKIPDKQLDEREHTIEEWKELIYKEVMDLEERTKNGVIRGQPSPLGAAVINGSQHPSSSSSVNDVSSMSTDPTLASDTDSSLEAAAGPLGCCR
Chain of Serine/threonine-protein kinase Nek4 (Homo sapiens) (P51957 whole entry, looked up): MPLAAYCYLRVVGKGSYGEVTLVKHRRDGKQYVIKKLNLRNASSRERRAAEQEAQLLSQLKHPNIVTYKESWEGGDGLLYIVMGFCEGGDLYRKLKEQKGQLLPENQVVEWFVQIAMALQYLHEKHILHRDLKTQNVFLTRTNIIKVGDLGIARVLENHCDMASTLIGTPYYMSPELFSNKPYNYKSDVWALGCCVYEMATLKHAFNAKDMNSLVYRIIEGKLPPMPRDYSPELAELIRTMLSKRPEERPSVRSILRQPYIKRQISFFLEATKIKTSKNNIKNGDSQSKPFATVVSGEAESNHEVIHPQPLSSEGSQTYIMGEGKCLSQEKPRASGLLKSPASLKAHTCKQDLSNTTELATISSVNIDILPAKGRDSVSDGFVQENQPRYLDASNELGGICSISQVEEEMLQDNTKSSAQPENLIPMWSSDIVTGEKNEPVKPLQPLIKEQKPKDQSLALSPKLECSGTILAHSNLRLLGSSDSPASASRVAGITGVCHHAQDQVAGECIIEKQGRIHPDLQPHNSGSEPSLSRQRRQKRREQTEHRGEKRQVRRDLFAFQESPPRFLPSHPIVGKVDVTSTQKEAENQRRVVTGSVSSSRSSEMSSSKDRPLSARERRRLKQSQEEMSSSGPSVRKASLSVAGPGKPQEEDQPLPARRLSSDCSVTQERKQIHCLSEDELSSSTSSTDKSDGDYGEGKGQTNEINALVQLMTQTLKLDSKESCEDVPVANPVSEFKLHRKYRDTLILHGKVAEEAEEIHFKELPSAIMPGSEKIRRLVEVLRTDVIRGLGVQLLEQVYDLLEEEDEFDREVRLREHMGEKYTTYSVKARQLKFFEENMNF
Chain of Mitogen-activated protein kinase kinase kinase 20 (Homo sapiens) (Q9NYL2 2-800 limits assumed): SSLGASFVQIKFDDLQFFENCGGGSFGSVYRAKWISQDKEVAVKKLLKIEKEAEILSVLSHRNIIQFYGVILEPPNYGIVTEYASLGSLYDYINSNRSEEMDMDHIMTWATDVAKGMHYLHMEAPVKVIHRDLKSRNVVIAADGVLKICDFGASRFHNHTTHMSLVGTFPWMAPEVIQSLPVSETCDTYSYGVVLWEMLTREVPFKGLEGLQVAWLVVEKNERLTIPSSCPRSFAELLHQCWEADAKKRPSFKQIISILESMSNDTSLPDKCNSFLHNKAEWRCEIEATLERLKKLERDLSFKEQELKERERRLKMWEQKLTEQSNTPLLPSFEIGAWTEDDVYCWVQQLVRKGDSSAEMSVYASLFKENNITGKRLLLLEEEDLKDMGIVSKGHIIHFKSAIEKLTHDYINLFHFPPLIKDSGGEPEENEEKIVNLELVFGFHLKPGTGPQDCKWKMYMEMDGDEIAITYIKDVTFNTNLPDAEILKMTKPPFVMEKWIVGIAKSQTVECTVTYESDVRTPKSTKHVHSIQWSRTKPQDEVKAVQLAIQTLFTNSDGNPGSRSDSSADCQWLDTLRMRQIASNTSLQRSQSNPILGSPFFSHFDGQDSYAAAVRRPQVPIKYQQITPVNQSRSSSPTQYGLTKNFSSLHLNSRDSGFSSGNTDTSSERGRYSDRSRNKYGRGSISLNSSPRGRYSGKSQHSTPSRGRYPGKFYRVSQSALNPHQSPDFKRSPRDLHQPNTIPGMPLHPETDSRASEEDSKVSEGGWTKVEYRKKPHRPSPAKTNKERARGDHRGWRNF
Chain of Vascular endothelial growth factor receptor 2 (Homo sapiens) (P35968 whole entry): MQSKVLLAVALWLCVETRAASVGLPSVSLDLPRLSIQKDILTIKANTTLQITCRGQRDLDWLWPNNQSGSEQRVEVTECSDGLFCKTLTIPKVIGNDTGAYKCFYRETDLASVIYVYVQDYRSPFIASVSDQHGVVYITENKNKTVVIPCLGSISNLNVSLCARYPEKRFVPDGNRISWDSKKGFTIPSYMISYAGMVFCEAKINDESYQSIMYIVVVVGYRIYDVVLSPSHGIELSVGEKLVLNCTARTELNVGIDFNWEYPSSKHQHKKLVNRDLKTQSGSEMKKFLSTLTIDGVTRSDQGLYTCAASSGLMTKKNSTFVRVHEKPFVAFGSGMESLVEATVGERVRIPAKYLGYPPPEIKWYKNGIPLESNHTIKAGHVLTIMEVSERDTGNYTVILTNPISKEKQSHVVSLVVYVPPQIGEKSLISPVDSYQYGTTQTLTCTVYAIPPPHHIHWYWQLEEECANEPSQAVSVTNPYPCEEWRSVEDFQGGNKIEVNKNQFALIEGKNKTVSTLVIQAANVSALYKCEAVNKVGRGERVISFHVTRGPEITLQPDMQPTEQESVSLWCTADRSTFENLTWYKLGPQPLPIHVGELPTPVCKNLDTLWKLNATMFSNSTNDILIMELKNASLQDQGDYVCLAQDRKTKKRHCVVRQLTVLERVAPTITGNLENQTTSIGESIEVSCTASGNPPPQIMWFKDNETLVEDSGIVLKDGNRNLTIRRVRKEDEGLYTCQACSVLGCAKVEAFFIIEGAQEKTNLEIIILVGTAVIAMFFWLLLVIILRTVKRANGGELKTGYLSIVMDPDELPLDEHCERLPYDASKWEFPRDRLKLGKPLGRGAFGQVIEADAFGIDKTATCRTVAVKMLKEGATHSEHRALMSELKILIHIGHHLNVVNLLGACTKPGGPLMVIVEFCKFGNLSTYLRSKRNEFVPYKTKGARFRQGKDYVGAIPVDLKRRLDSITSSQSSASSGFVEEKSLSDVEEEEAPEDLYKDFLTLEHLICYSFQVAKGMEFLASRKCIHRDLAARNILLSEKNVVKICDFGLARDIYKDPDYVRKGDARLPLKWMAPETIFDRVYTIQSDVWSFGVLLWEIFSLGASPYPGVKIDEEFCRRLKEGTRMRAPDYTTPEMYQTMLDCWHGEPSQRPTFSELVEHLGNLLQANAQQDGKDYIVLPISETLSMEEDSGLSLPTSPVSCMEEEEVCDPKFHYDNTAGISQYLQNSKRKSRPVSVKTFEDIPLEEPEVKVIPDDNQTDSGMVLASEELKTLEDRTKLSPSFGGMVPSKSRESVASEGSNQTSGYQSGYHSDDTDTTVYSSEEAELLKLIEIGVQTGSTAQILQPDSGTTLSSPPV

`C[C@]1(O)C[C@@H](c2nc(-c3ccc4ccc(-c5ccccc5)nc4c3)c3c(N)nccn32)C1`: the inhibition in experiment [1] was 7.12%; in experiment [2], 5.59%; in experiment [3], -1.1%; in experiment [4] it was -3.26%; in [5] it was -9.8%.
Turning to `C[C@@]1(C(=O)Nc2ccc(F)nc2)CCCN1c1nc(Nc2cc(C3CC3)n[nH]2)c2cccn2n1`, the inhibition is 0.66% in experiment [6]; 2.64% in experiment [7]; 3.67% in experiment [8]; -2.89% in [9]; 2.09% in experiment [10]; -2.81% in [11].

As usually defined, the inhibition is the drop in the measured response relative to a control, in per cent.
